Here are results for 1 molecule from patent publication US20020086278A1, “CHROMOGENIC MEDIA CONTAINING BLOOD OR HEMIN” (priority 1999, published 2002).

Structures are written as SMILES.

Assay [1] concerns S. agalactiae 4768. The assay is described as follows: Example 2: effect of incubation conditions on colony color formation. The format is cell-based, Streptococcus agalactiae. Conditions: 0.004 g/plate, 24 h, CO2.
The test system of assay [2] is S. agalactiae 6638. Described as above. In kind it is cell-based, Streptococcus agalactiae. Conditions: 0.004 g/plate, 24 h, CO2.
The subject of assay [3] is S. agalactiae 13813. The assay is described as above. In kind it is cell-based, Streptococcus agalactiae. Conditions: 0.004 g/plate, 24 h, CO2.
The subject of assay [4] is S. agalactiae BD11586. The assay is described as above. Conditions: Chocolate II Agar, 0.004 g/plate; 24 h, CO2. In kind it is cell-based, Streptococcus agalactiae.
The subject of assay [5] is S. agalactiae BD747. The assay is described as above. In kind it is cell-based, Streptococcus agalactiae. Conditions: 0.004 g/plate, 24 h, CO2.
Assay [6] concerns Strep Grp C 12388. The assay is described as above. In kind it is cell-based, Streptococcus group C. Conditions: 0.004 g/plate, 24 h, CO2.
The test system of assay [7] is Strep Grp G 12394. The assay is described as above. In kind it is cell-based, Streptococcus group G. Conditions: 0.004 g/plate, 24 h, CO2.
The test system of assay [8] is Strep Grp G 27961. The description is as above. The format is cell-based, Streptococcus group G. Conditions: 0.004 g/plate, 24 h, CO2.
Assay [9] relates to Staphylococcus Coag Neg (step). The assay is described as follows: Example 3: colony color on chromogenic TSA II with 5% sheep blood (chromogen in medium). Conditions: for Colony Color on Various Chromogenic TSA II with 5% Sheep Blood: CO2, 18 h. The format is cell-based.
For assay [10], the system named is cakr 34135. The assay is described as above. Conditions: CO2, 18 h. In kind it is cell-based.

In the case of `O=C(O)[C@H]1O[C@@H](Oc2c[nH]c3ccc(Br)c(Cl)c23)[C@H](O)[C@@H](O)[C@@H]1O` [X-Glucuro, X-Glucuronide], the Colony Color entry in assay [1] (Chocolate II Agar) is recorded as “blue (l)”; in [1] (TSA II 5% Sheep Blood), “blue (l)”; in assay [2] (Chocolate II Agar) it was “blue (m)”; in assay [2] (TSA II 5% Sheep Blood) it was “blue (m)”; in assay [3] (Chocolate II Agar) it was “blue (d)”; in assay [3] (TSA II 5% Sheep Blood) it was “blue (d)”. The Colony Color result in assay [4] is recorded as “blue (vl)”; in assay [5] (Chocolate II Agar) it was “blue (l)”; in assay [5] (TSA II 5% Sheep Blood), “grey blue”; in assay [6] (Chocolate II Agar) it was “blue (d)”; in [6] (TSA II 5% Sheep Blood), “blue (d)”; in assay [7] (Chocolate II Agar) it was “blue (d)”. For the same molecule, the Colony Color entry was “grey blue” in assay [7] (TSA II 5% Sheep Blood), “blue (d)” in [8] (Chocolate II Agar), “blue (d)” in assay [8] (TSA II 5% Sheep Blood) and 0 in assay [10]. In addition, the “Colony Color (Summary)” value in assay [9] (chromogenic TSA II with 5% Sheep Blood, 0.1 g/l, 5 strains tested) turned out to be 0. Moreover, the “Colony Color on Various Chromogenic TSA II with 5% Sheep Blood” value in assay [9] (step 12228), in assay [9] (step cdc1), in [9] (step cdc4), in assay [9] (stha cdc2) and in [9] (stsa cdc3) was 0 each time.
